Test results taken from patent US9469617B2, “Molecules having certain pesticidal utilities, and intermediates, compositions, and processes related thereto” (priority 2014, dated 2016).

How the values were obtained:
Assay type in all cases: in vivo
[1] = tested on: Yellow Fever Mosquito (YFM) (Aedes aegypti); assay: Bioassay on Yellow Fever Mosquito (YFM) larvae, 96-well plate; settings: Table ABC; about 1 day-old larvae, master plate 4000 ppm in DMSO diluted, scored on mortality after 3 days
Procedure, shortened: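 Compounds from 4000 ppm DMSO master solutions, diluted in 90:10 water:acetone, dispensed into wells and infested with about 1-day-old larvae in liver-powder water. Held covered at room temperature for 3 days, then each well scored for mortality; 6 replicate plates per master.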

[2] = tested on: Cabbage Looper (CL) (Trichoplusia ni); assay: Bioassay on Cabbage Looper (CL), 128-well diet tray assay; settings: 168 h, Table ABC, 50 μg/cm^2 on artificial diet, second instar larvae, five to seven days, 25° C., read-out: CL % Control (or Mortality) rating
Procedure, shortened: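 Second-instar larvae (one to five per well) placed on artificial diet treated with 50 μg/cm^2 compound in 90:10 acetone-water, dried, eight wells per compound. Held at 25 °C, 14:10 light-dark for five to seven days; percent mortality per well, averaged over the eight wells.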

[3] = tested on: Beet Armyworm (BAW) (Spodoptera exigua); assay: Bioassay on Beet Armyworm (BAW), 128-well diet tray assay; settings: 168 h, Table ABC, 50 μg/cm^2 on artificial diet, second instar larvae, five to seven days, 25° C., read-out: BAW % Control (or Mortality) rating
Procedure, shortened: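 Artificial diet was surface-treated with 50 μg/cm^2 compound in 90:10 acetone-water and dried, then infested with one to five second-instar larvae per well. Trays were held 5–7 days at 25° C, 14:10 light-dark. Percent mortality was averaged over eight wells.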

Row | SMILES | YFM % Control (or Mortality) rating [1] | mortality at 50 µg/cm2 [2] [%] | mortality at 50 µg/cm2 [3] [%]
1 | CCCc1ccc(C)cc1N1C(=O)CS/C1=N\C(=O)NC1CCc2cc(-c3ncn(-c4ccc(OC(F)(F)F)cc4)n3)ccc2C1 (stereo not drawn) [P34, (Z)-1-(3-(5-Methyl-2-propylphenyl)-4-oxothiazolidin-2-ylidene)-3-(6-(1-(4-(trifluoromethoxy)phenyl)-1H-1,2,4-triazol-3-yl)-1,2,3,4-tetrahydronaphthalen-2-yl)urea] | D (No activity noticed in this bioassay) | 50 to 100 | 50 to 100
2 | COc1ccc(N2C(=O)CS/C2=N\C(=O)NC2CCc3cc(-c4ncn(-c5ccc(OC(F)(F)F)cc5)n4)ccc3C2)c(C)c1 (stereo not drawn) [P35, (Z)-1-(3-(4-methoxy-2-methylphenyl)-4-oxothiazolidin-2-ylidene)-3-(6-(1-(4-(trifluoromethoxy)phenyl)-1H-1,2,4-triazol-3-yl)-1,2,3,4-tetrahydronaphthalen-2-yl)urea] | A (80-100) | 50 to 100 | 50 to 100
3 | CCc1cccc(C)c1N1C(=O)CS/C1=N\C(=O)NC1CCc2cc(-c3ncn(-c4ccc(OC(F)(F)F)cc4)n3)ccc2C1 (stereo not drawn) [P36, (Z)-1-(3-(2-Ethyl-6-methylphenyl)-4-oxothiazolidin-2-ylidene)-3-(6-(1-(4-(trifluoromethoxy)phenyl)-1H-1,2,4-triazol-3-yl)-1,2,3,4-tetrahydronaphthalen-2-yl)urea] | A (80-100) | 50 to 100 | 50 to 100
4 | Cc1ccc(Cl)c(N2C(=O)CS/C2=N\C(=O)NC2CCc3cc(-c4ncn(-c5ccc(OC(F)(F)F)cc5)n4)ccc3C2)c1 (stereo not drawn) [P37, (Z)-1-(3-(2-Chloro-5-methylphenyl)-4-oxothiazolidin-2-ylidene)-3-(6-(1-(4-(trifluoromethoxy)phenyl)-1H-1,2,4-triazol-3-yl)-1,2,3,4-tetrahydronaphthalen-2-yl)urea] | D (No activity noticed in this bioassay) | 50 to 100 | 50 to 100
5 | COc1ccc(C)cc1N1C(=O)CS/C1=N\C(=O)NC1CCc2cc(-c3ncn(-c4ccc(OC(F)(F)F)cc4)n3)ccc2C1 (stereo not drawn) [P38, (Z)-1-(3-(2-Methoxy-5-methylphenyl)-4-oxothiazolidin-2-ylidene)-3-(6-(1-(4-(trifluoromethoxy)phenyl)-1H-1,2,4-triazol-3-yl)-1,2,3,4-tetrahydronaphthalen-2-yl)urea] | A (80-100) | 50 to 100 | 50 to 100
